Drawing on patent publication EP0158265A2, “Benzamide and anilide derivatives” (BEECHAM GROUP PLC, priority 1984, dated 1985), this text covers ED50 for two compounds.

This assay relates to von Bezold-Jarisch reflex evoked by 5HT. The experiment in a line: Antagonism of the von Bezold-Jarisch reflex evoked by 5HT in the anaesthetised rat. The settings on record: anaesthetised male rat; compound given intravenously; concentration reducing the 5HT-evoked heart rate response (5-HT usually 6µg/kg i.v.) to 50% of control. The assay is classed as in vivo. The procedure: Antagonism of the von Bezold-Jarisch reflex
The compounds were evaluated for antagonism of the von Bezold-Jarisch reflex evoked by 5HT in the anaesthetised rat according to the following method: • Male rats (Beecham Pharmaceuticals), 250-350g, were anaesthetised with urethane (1.25g/kg intraperitoneally) and blood pressure and heart rate recorded as described by Fozard J.R. et al., J. Cardiovasc. Pharmacol. 2, 229-245 (1980). A submaximal dose of 5-HT (usually 6µg/kg) was given repeatedly by the intravenous route and changes in heart rate quantified. Examples were given intravenously and the concentration required to reduce the 5HT-evoked response to 50% of the control response (ED50) was then determined.

For `CN1C2CCC1CC(NC(=O)c1cc(Cl)cc(Cl)c1)C2` (stereo not drawn) [(2), 3,5-dichloro-N-[3β-{8-methyl-8-azabicyclo(3.2.1)octyl}] benzamide], the ED50 stood at 0.3 mg/kg i.v. Next, `CN1C2CCC1CC(NC(=O)c1cc(Cl)cc(Cl)c1)C2` (stereo not drawn) [(5), 3,5-Dichloro-N-[3α-{8-methyl-8-azabicyclo(3.2.1)octyl}] benzamide]: 0.009 mg/kg i.v.
